The source of these data is patent US7939557B2, “Vascular endothelial receptor specific inhibitors” (Nova Southeastern University, priority 2006, dated 2011).

The test system of series [1] is Human umbilical vein endothelial cell. Nature of the series: In Vitro Angiogenesis Assay (morphogenesis / tube formation on Matrigel, ECMatrix kit). It is filed as cell-based. Details: key to Results (In Vitro Angiogenesis Assay score): Individual cells, well separated (+++++); Cells begin to migrate and align themselves (++++); Cells begin to line but not sprouting (+++); Visible Sprouting (++); Closed polygons begins to form (+). Particulars: for Results (In Vitro Angiogenesis Assay score): HUVECs on ECMatrix, 8 hours at 37° C., inhibitors 1 mM and 10 mM, higher score = greater inhibition of angiogenesis. The protocol: Human umbilical vein endothelial cell was purchased from Cambrex Co. (East Rutherford, N.J.) and maintained in EGM (Endothelial Growth Medium) supplemented with 2% FBS, 0.1% EGF, 0.1% Hydrocortisone, 0.1% GA-1000 and 0.4% BBE.
The morphogenesis assay on Matrigel was performed according to the manufacturer's instructions (Chemicon International). The ECMatrix™ kit consists of laminin, collagen type IV, heparan sulfate, proteoglycans, entactin and nidogen. It also contains various growth factors (TGF-β, FGF) and proteolytic enzymes (plasminogen, tPA, MMPs) that are normally produced in EHS tumors. The incubation condition was optimized for maximal tube-formation as follows: 50 μl of EC Matrix™ was suitably diluted in the ratio 9:1 with 10× diluent buffer and used for coating the 96-well plate. The coated plates were incubated at 37° C. for 1 hr. to allow the Matrix solution to solidify. In the meantime the HUVECs that were cultured for 24 hours in EGM with 2% FBS was trypsinised and re-suspended in the growth media and the cells were counted. After 1 hr. pre-incubation of the plate with Matrix solution, the HUVECs were plated at 10^4 cells/well in the absence or in the presence of different VEGFR inhibitors (1 mM and 10 mM). After 8 hours incubation at 37° C., the cell three-dimensional organization (cellular network structures) was examined under an inverted photomicroscope. Each treatment was performed in triplicate.
Activated endothelial cells form cellular networks (mesh like structures) resembling capillary tubes sprouting into the stromal space. The formation of these cellular networks is a dynamic process, which started migration and alignment of cells followed by the development of capillary tubes like structures, sprouting of new branches and finally the formation of the cellular networks. Although this in vitro angiogenesis kit is designed only as a qualitative assay, we have made an attempt to quantitate the degree of angiogenesis using a scoring method. The scoring was based on the extent of the cellular networks that were observed as follows:
Individual cells, well separated (+++++)
Cells begin to migrate and align themselves (++++)
Cells begin to line but not sprouting (+++)
Closed polygons begins to form (+).
According to our qualitative assessment, the higher the scoring the greater the efficiency of the compound for inhibiting endothelial cell mediated angiogenesis.

The subject of the next series is GI-101A. Nature of the series: Cytotoxicity towards breast carcinoma cell line GI-101A. It is filed as cell-based.
A further series concerns VEGFR. Nature of the series: Assay of VEGF Receptor Tyrosine Kinase Activity (VEGFR immunoprecipitated from cell lysate, non-radioactive PTK ELISA kit). It counts as biochemical. The source says: Protein Tyrosine Kinases (PTKs) perform a critical role in signal transduction pathways that control cell proliferation, differentiation, metabolism, and apoptosis. Phosphorylation of proteins by PTKs is essential for the regulation of these biological mechanisms and defects in these pathways may result in a number of human diseases, including cancer. The important aspect of these enzymes in cellular regulation is accentuated by the fact that for a large number of kinases a corresponding viral oncogene product has been identified. […] CHEMICON's non-radioactive Tyrosine Kinase Activity Assay provides a simple, convenient and specific method for quantification and comparative determination of a wide range of PTKs. […]
The non-radioactive Tyrosine Kinase Activity Assay Kit consists of a synthetic Biotinylated Peptide Substrate, a Biotinylated Phosphopeptide, purified Phosphotyrosine specific monoclonal antibody conjugated to horseradish peroxidase (HRP) and other components required to perform 96 ELISA-based assays. […] The quantity of phosphate incorporated into the tyrosine kinase substrate is determined utilizing the phosphopeptide standard curve. […] The assay reaction would be terminated by the addition of 100 μl of stop solution and finally, the absorbance was measure on a standard microplate reader at 450 nm. […]
A general note: In an ELISA, binding on a coated surface is turned into a signal by an enzyme label.

For the next series, the system named is MCF-7. Nature of the series: Cytotoxicity towards breast carcinoma cell line MCF-7. It is filed as cell-based.

As to `O=C(Nc1cccc2c1C(=O)NC2=O)c1ccc(Cl)s1` [Example 6], the “Results (In Vitro Angiogenesis Assay score)” value (shortened to “Results”) in series [1] is on record as “+++”. `CC(=O)c1ccc(C(=O)Nc2ccc3c(c2)C(=O)NC3=O)cc1` [Example 3]: the “Results” value in series [1] was “++”. Still for that read-out and setting: in the case of `N#Cc1ccc(C(=O)Nc2ccc3c(c2)C(=O)NC3=O)cc1` [Example 2] it was “+++”; in that of `O=C(Nc1cccc2c1C(=O)NC2=O)c1ccc(S(=O)(=O)N2CCCCC2)cc1` [Example 5], “+++”.

In the case of `O=C(Nc1ccc2c(c1)C(=O)NC2=O)c1nc2ccccc2s1` [Example 1], the “Results” value in series [1] is reported as “++++”. What is called IC50 is the concentration that inhibits the measured activity by half. By EC50 is commonly meant the concentration giving half of the maximal effect. In the case of `O=C(Nc1cccc2c1C(=O)NC2=O)c1ccc([N+](=O)[O-])o1` [Example 4], the “cytotoxicity towards GI-101A” value in the series with GI-101A is “produced cytotoxicity”. Further, the IC50 in the series on VEGFR (VEGFR immunoprecipitated from cell lysate, PTK assay, read-out: IC50 for inhibiting VEGFR kinase) is 400 nM. In the series on VEGFR (level of inhibition increased with concentration), the “inhibition of VEGFR associated tyrosine kinase activity (in words)” value is on record as “able to inhibit the VEGFR associated tyrosine kinase activity”. In addition, the “cytotoxicity towards MCF-7” value in the series on MCF-7 was “produced cytotoxicity”. Further, the “Results” value in series [1] is reported as “+++++”. Besides, the EC50 in series [1] (Homo sapiens, Endothelial cell, estimated, read-out: EC50 value for anti-antigenic effect) is 25 nM.
